Source: US10322995B2, “Substituted cyano cycloalkyl penta-2,4-dienes, cyano cycloalkyl pent-2-en-4-ynes, cyano heterocyclyl penta-2,4-dienes and cyano heterocyclyl pent-2-en-4-ynes as active substances against abiotic plant stress” (BAYER CROPSCIENCE AKTIENGESELLSCHAFT, priority 2014, dated 2019)

Key:
[1] = target: T1, phosphatase ABI1 via the co-regulator RCAR11/PYR1 (Arabidopsis thaliana, UniProt O49686+P49597); experiment: In vitro assay: inhibition of the phosphatase ABI1 via the co-regulator RCAR11/PYR1, MUP dephosphorylation, fluorescence; format: biochemical; conditions: concentration of 5 mM of the substance in a solution of DMSO and water; MUP dephosphorylation, fluorescence 460 nm
T1 sequence (O49686 1-191): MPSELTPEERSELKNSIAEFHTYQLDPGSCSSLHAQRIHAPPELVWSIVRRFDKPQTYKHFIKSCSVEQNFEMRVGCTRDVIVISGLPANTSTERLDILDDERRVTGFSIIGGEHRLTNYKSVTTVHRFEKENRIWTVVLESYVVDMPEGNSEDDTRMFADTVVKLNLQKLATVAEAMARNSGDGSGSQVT
T1 sequence (P49597 1-434): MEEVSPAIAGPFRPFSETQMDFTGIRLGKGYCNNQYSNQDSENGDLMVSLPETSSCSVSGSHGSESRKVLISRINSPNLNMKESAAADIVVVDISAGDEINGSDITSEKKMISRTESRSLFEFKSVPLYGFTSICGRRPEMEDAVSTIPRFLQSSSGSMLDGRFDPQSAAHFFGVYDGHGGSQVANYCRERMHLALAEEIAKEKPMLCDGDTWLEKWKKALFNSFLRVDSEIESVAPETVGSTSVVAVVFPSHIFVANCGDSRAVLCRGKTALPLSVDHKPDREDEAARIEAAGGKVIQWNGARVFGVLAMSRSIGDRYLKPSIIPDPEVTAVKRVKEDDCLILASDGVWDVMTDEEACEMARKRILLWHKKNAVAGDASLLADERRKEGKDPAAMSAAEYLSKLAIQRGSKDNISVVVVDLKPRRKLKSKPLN
Description: Effects of the phytohormone abscisic acid (ABA) on the behaviour of plants under abiotic stress and the mechanism of action of ABA are described in the literature (cf. Abrams et al, WO97/23441, Cutler, Park et al. Science, 2009, 324, 1068; Grill et al. Science, 2009, 324, 1064; Tanokura et al. Biophysics, 2011, 7, 123; Schroeder et al. Plant J. 2010, 61, 290). Therefore, it is possible with the aid of a suitable in vitro test system to derive a correlation between the action of ABA and the stress response of a plant under abiotic stress. Under drought stress, plants form the phytohormone abscisic acid (ABA). This binds, along with a co-regulator (Regulatory Component of ABA-Receptor=RCAR according to Grill et al. Science, 2009, 324, 1064 or PYR/PYL according to Cutler et al. Science, 2009, 324, 1068), to a phosphatase (e.g. ABI1, a type 2C protein phosphatase, also abbreviated to PP2C) and inhibits its activity. As a result, a “downstream” kinase (e.g. SnRK2) is no longer dephosphorylated. This kinase, which is thus active, via phosphorylation of transcription factors (e.g. AREB/ABF, vgl. Yoshida et al., Plant J. 2010, 61, 672), switches on a genetic protection programme to increase drought stress tolerance.
The assay described hereinafter utilizes the inhibition of the phosphatase ABI1 via the co-regulator RCAR11/PYR1 aus Arabidopsis thaliana.
For the determination of activity, the dephosphorylation of 4-methylumbelliferyl phosphate (MUP) was measured at 460 nm. The in vitro assay was conducted in Greiner 384-well PS microplates F-well, using two controls: a) dimethyl sulphoxide (DMSO) 0.5% (f.c.) and b) 5 μM (f.c.) abscisic acid (ABA). […] The substance solution thus obtained, if necessary, was stirred with esterase from porcine liver (EC 3.1.1.1) at room temperature for 3 h and centrifuged at 4000 rpm for 30 min. A total volume of 45 μl was introduced into each cavity of the microplate, having the following composition: • 1) 5 μl of substance solution, i.e. a) DMSO 5% or b) abscisic acid solution or c) the corresponding example compound of the general formula (I) dissolved in 5% DMSO. • 2) 20 μl of enzyme buffer mix, composed of a) 40% by vol. of enzyme buffer (10 ml contain equal proportions by volume of 500 mM Tris-HCl pH8, 500 mM NaCl, 3.33 mM MnCl2, 40 mM dithiothreitol (DTT)), b) 4% by vol. of ABI1 dilution (protein stock solution was diluted so as to give, after addition, a final concentration in the assay of 0.15 μg ABI1/well), c) 4% by vol. of RCAR11 dilution (enzyme stock was diluted so as to give, on addition of the dilution to the enzyme buffer mix, a final concentration in the assay of 0.30 μg enzyme/well), d) 5% by vol. of Tween20 (1%), e) 47% by vol. H2O bi-dist. • 3) 20 μl of substrate mix, composed of a) 10% by vol. of 500 mM Tris-HCl pH8, b) 10% by vol. of 500 mM NaCl, c) 10% by vol. of 3.33 mM MnCl2, d) 5% by vol. of 25 mM MUP, 5% by vol. of Tween20 (1%), 60% by vol. of H2O bi-dist.
Enzyme buffer mix and substrate mix were made up 5 minutes prior to the addition and warmed to a temperature of 35° C. On completion of pipetting of all the solutions and on completion of mixing, the plate was incubated at 35° C. for 20 minutes. Finally, a relative fluorescence measurement was made at 35° C. with a BMG Labtech “POLARstar Optima” microplate reader using a 340/10 nm excitation filter and a 460 nm emission filter. The efficacy of the compounds of the general formula (I) is reported in the table which follows using abscisic acid (No. 64) as comparative substance according to the following classification: ++++ (inhibition≥90%), +++ (90%>inhibition≥70%), ++ (70%>inhibition≥50%), +(50%>inhibition≥30%).
Effects of selected compounds of the general formula (I) in the above-described in vitro assay at a concentration of 5 mM of the substance of the general formula (I) in question in a solution of DMSO and water: […]

Brassica napus (BRSNS) = experiment: In vivo analyses Part C: drought stress, appearance vs stressed control plants in categories (BRSNS); parameters: key: 0: no positive effect; 10: slight positive effect; 20: clear positive effect; 30: strong positive effect; conditions: appearance vs stressed control plants after recovery phase, efficacy range of 3-4 pots
Protocol: Seeds of monocotyledonous and dicotyledonous crop plants were sown in sandy loam in plastic or wood-fibre pots, covered with soil or sand and cultivated in a greenhouse under good growth conditions. The test plants were treated at the early leaf stage (BBCH10-BBCH13). To assure uniform water supply before commencement of stress, the potted plants were supplied with water by dam irrigation prior to substance application. The inventive compounds were first formulated as wettable powders (WP) or dissolved in a solvent mixture. The further dilution was effected with water supplemented with 0.2% wetting agent (e.g. agrotin). The finished spray liquor was sprayed onto the green parts of the plant at an equivalent water application rate of 600 I/ha. Substance application was followed immediately by stress treatment of the plants. For this purpose, the wood-fibre pots were transferred in plastic inserts in order to prevent them from subsequently drying out too quickly. Drought stress was induced by gradual drying out under the following conditions: “Day”: 14 hours with illumination at 26-30° C. “Night”: 10 hours without illumination at 18-20° C. The duration of the respective stress phases was guided mainly by the condition of the stressed control plants. It was ended (by re-irrigating and transfer to a greenhouse with good growth conditions) as soon as irreversible damage was observed on the stressed control plants. The end of the stress phase was followed by an about 4-7-day recovery phase, during which the plants were once again kept under good growth conditions in a greenhouse. The duration of the recovery phase was guided mainly by when the trial plants had attained a state which enabled visual scoring of potential effects, and was therefore variable. Once this juncture had been reached, the appearance of the plants treated with test substances was recorded in comparison to the stressed control plants by the following categories: [table] For each substance and dosage, 3-4 pots were treated and evaluated. BRSNS=Brassica napus

Row | SMILES | ABI1 inhibition [1] | Effect (BRSNS) (Brassica napus (BRSNS); dosage 250 g/ha) | Effect (BRSNS) (Brassica napus (BRSNS); dosage 25 g/ha)
1 | COC(=O)C=C(C#CC(O)(c1ccc(C)cc1)C1(C#N)CC1)C(F)(F)F (racemic) [I.1-812] | +++ (90%>inhibition≥70%) | 10-20 | –
2 | COC(=O)C=C(C)C=CC(O)(C1CC1)C1(C#N)CC1 (racemic) [I.2-543] | – | – | 30
3 | CC/C(C#CC(O)(C1CC1)C1(C#N)CC1)=C/C(=O)OC (stereo not drawn) [I.1-618] | ++++ (inhibition≥90%) | – | 30
4 | CC/C(C#CC(O)(C1CCCCC1)C1(C#N)CC1)=C/C(=O)OC (stereo not drawn) [I.1-678] | ++++ (inhibition≥90%) | 10-30 | –

Further lines, with some results ahead:

Row | ABI1 inhibition [1] | SMILES | Effect (BRSNS) (Brassica napus (BRSNS); dosage 250 g/ha) | Effect (BRSNS) (Brassica napus (BRSNS); dosage 25 g/ha)
5 | +++ (90%>inhibition≥70%) | CCCOC(=O)C=C(C#CC(O)(C(CC)CC)C1(C#N)CC1)C(F)(F)F (racemic) [I.1-887] | 10-20 | –
6 | ++++ (inhibition≥90%) | CCC(C=CC(O)(C(C)C)C1(C#N)CC1)=CC(=O)OC (racemic) [I.2-102] | 10-20 | –
7 | ++++ (inhibition≥90%) | CCCOC(=O)C=C(C=CC(O)(C(C)C)C1(C#N)CC1)CC (racemic) [I.2-507] | 30 | –
8 | ++++ (inhibition≥90%) | CCC(C=CC(O)(C(CC)CC)C1(C#N)CC1)=CC(=O)OC (racemic) [I.2-583] | 10-30 | –
